Measured values reported in article PMC12301304 (Frontiers in Pharmacology, 2025).
Where two headings read alike, the source gives them in different places.

Key:
[1] = ref Jin et al., 2024, cited from earlier work
CYP2c13 = biological target: T1, CYP2c13 (Rattus norvegicus, UniProt P20814); assay: RLM incubation: metabolic clearance rate of mephenytoin (CYP2c13); details: RLM 0.5 mg/mL, 30 min 37°C, inhibitor added, blank control 15.97 ± 0.68, n = 3
T1 sequence (P20814 1-490): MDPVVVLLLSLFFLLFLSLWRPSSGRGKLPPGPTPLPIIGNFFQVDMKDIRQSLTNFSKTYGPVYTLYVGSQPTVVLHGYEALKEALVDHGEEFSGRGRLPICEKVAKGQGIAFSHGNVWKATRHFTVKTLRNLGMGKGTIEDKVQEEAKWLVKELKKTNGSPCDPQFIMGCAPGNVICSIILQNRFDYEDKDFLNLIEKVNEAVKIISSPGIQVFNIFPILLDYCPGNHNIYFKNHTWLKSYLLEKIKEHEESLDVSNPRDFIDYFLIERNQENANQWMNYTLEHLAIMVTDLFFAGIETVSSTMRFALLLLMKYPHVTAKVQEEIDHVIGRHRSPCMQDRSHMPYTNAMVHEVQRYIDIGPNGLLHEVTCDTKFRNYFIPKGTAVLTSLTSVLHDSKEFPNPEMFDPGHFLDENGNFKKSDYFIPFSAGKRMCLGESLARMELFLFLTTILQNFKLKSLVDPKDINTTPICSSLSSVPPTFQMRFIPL
Method: (§1) The effect of the Zhicaowu–Hezi combination on CYP450 enzymes in RLM was evaluated by assessing the metabolic clearance rates of theophylline, metoprolol, bupropion, mephenytoin (CYP2c13), chlorzoxazone, testosterone, and diclofenac.
(§2) On day 15, the rats were humanely euthanized, and liver tissues were excised for microsomal preparation. […] Livers from each group were repeatedly washed with ice-cold phosphate buffered saline (PBS). […] Subsequently, they were blotted dry with filter paper, weighed, and homogenized by adding 4 mL of ice-cold PBS per gram of liver tissue. The mixture was homogenized in an ice bath. The liver homogenate was subjected to centrifugation at 10,000 RPM for 20 min at 4°C. The resulting supernatant was then combined with an ice-cold 88-mmol/L CaCl2 solution at a 1:1 ratio, and the mixture was homogenized in an ice bath for 5 min. The resulting solution was then centrifuged at 25,000 × g for 30 min at 4°C. The supernatant was discarded and the precipitate was repeatedly resuspended in PBS–20% glycerol buffer. The precipitate was then stored in a separate bottle at −80°C for backup. The protein concentration of the prepared RLM was determined using a bicinchoninic acid protein assay kit.
(§3) Preincubation was conducted for 5 min in a water bath at 37°C, after which NADPH (1 mmol/L) was added, and incubation continued for 30 min at 37°C. Once the incubation period elapsed, the reaction was terminated by the addition of an ice-cold IS-containing acetonitrile solution. The samples were vortexed for 2 min and centrifuged at 15,000 RPM for 10 min. The resulting supernatant was filtered through a 0.22-μm organic microporous membrane, and 20 μL of the filtered solution was injected into the HPLC assay. To prevent the organic solvents from inducing or inhibiting the enzyme, the volume fraction of organic solvents in the entire incubation system was maintained at 1%. […] The inhibitor group was added with corresponding inhibitor, while all other procedures remained identical.

CYP2e1 = CYP2e1 (Rattus norvegicus, UniProt P05182); assay: RLM incubation: metabolic clearance rate of chlorzoxazone (CYP2e1); details: RLM 0.5 mg/mL, 30 min 37°C, inhibitor added, blank control 15.80 ± 0.34, n = 3
Sequence of CYP2e1 (P05182 whole entry): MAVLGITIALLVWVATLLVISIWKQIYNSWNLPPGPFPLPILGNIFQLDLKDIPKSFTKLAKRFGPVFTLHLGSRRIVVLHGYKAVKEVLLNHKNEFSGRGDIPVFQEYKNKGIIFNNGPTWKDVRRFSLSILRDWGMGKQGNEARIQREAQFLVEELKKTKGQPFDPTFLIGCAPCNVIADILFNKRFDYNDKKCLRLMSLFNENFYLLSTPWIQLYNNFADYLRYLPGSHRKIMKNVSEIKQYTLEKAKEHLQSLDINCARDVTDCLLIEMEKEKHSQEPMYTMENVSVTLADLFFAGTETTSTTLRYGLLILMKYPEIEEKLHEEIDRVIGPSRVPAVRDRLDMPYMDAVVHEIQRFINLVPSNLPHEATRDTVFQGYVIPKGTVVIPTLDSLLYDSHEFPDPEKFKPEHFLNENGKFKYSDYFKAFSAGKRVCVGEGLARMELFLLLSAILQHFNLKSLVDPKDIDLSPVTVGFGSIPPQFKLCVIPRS
Method: as §1, §2
Preincubation was conducted for 5 min in a water bath at 37°C, after which NADPH (1 mmol/L) was added, and incubation continued for 30 min at 37°C. […]

CYP2b1 = biological target: T2, CYP2b1 (Rattus norvegicus, UniProt P00176); assay: RLM incubation: metabolic clearance rate of bupropion (CYP2b1); details: RLM 0.5 mg/mL, 30 min 37°C, inhibitor added, blank control 7.92 ± 0.60, n = 3
T2 sequence (P00176 1-491): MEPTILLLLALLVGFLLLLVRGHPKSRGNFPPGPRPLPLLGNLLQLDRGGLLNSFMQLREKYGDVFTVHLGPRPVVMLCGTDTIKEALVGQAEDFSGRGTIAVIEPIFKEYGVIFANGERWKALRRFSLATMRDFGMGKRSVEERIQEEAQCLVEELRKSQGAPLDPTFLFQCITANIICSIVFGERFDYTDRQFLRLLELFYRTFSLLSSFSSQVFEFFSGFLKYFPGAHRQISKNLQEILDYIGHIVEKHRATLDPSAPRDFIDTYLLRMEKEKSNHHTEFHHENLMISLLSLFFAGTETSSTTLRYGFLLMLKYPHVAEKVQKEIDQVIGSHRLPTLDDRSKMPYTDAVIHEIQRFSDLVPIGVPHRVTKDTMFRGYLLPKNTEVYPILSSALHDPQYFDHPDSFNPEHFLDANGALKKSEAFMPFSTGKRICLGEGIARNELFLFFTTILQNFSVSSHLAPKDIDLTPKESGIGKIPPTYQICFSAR
Method: as §1, §2, §3

CYP2d2 = biological target: T3, CYP2d2 (Rattus norvegicus, UniProt P10634)
T3 sequence (P10634 1-500): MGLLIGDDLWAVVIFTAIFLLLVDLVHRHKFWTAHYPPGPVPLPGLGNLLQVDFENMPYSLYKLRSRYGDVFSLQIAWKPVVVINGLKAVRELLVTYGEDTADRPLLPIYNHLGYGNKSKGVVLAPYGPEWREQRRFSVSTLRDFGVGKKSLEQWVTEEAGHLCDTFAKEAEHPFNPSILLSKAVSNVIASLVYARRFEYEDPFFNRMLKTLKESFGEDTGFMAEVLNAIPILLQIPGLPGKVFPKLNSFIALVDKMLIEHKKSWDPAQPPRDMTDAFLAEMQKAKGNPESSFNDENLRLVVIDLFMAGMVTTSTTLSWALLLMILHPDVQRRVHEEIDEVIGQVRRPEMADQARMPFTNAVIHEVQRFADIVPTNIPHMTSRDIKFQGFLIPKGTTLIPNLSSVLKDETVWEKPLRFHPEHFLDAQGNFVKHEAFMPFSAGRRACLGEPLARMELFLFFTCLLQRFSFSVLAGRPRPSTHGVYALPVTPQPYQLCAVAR
Method: as §1, §2, §3

CYP2c11 = biological target: T4, CYP2c11 (Rattus norvegicus, UniProt P08683); details: RLM 0.5 mg/mL, 30 min 37°C, inhibitor added, probe diclofenac; blank control 21.12 ± 3.80; n = 3
T4 sequence (P08683 1-500): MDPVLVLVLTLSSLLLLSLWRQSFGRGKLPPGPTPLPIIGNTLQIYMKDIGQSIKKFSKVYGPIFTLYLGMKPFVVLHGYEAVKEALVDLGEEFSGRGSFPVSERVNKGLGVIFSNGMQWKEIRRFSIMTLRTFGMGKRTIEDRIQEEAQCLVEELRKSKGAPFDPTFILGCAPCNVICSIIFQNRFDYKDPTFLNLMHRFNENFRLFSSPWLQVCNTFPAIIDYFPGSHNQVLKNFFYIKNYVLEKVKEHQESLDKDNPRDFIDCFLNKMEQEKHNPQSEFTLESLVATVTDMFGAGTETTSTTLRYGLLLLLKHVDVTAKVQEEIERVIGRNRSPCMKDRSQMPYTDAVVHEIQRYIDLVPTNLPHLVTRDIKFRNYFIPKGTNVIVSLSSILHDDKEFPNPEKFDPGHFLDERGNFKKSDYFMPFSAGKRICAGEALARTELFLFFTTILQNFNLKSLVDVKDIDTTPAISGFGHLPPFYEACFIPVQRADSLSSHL
Method: as §1, §2, §3

CYP3a1 = biological target: T5, CYP3a1 (Rattus norvegicus, UniProt P04800)
T5 sequence (P04800 1-504): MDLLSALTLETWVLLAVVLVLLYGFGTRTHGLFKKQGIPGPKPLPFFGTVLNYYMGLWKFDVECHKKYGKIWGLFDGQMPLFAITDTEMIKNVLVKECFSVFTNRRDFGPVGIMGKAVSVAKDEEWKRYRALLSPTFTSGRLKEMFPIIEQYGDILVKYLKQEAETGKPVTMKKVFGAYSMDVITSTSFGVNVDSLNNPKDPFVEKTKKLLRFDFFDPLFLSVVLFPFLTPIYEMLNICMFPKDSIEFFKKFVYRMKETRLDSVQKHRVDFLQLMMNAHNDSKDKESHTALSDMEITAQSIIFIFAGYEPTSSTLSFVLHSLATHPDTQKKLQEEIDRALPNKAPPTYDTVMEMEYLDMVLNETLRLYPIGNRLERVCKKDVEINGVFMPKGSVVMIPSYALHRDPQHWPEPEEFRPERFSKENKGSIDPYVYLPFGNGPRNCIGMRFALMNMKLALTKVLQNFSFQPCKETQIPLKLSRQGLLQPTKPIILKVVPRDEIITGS
Method: as §1, §2, §3

[2] = Pharmacokinetics of the seven cocktail probe drugs in blank control rats (Group C); details: for t1/2 z: probe drug in rat plasma, cocktail by gavage, Group C (0.3% CMC-Na 14 d), n = 8; for AUC(0-inf) / AUC(0-t) / CL/F / Cmax / half-life: rat, in vivo, po
Method: The effect of the Zhicaowu–Hezi combination on CYP450 enzymes in rats was evaluated by examining the pharmacokinetics of theophylline (CYP1a2), metoprolol (CYP2d2), bupropion (CYP2b1), omeprazole (CYP2c13), chlorzoxazone (CYP2e1), testosterone (CYP3a1), and diclofenac (CYP2c11).
The collected blood was placed in sodium heparin-treated centrifuge tubes and centrifuged at 4°C for 10 min at 3,000 RPM. […] After 10 min of sedimentation, the supernatant was extracted through a 0.22-μm microporous membrane, 20 μL of which was injected into HPLC. The pharmacokinetic parameters of each probe drug were calculated using the non-atrial compartment model in Drug and Statistics software (DAS, 3.0; Shanghai, China).

CYP1a2 = biological target: T6, CYP1a2 (Rattus norvegicus, UniProt P04799); details: microsomes
T6 sequence (P04799 1-513): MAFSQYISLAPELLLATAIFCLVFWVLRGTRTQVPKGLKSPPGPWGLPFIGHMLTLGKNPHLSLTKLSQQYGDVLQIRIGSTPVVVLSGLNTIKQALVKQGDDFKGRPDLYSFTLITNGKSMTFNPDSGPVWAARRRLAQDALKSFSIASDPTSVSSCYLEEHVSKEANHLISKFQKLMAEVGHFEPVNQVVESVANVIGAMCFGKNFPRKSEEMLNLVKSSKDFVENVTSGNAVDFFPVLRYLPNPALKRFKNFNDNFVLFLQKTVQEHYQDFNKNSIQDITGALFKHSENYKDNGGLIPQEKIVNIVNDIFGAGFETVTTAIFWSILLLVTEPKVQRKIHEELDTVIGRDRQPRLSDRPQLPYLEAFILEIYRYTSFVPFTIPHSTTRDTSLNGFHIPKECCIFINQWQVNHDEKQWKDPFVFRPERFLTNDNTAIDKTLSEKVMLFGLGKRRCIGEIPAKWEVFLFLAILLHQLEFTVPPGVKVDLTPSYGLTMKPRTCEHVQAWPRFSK
Method: as §1, §2, §3

SMILES	AUC(0-inf) [2]	AUC(0-t) [2]	CL/F [2]	Cmax [2]	half-life [2]	also measured
CC1(C)[C@@H](O[C@H]2O[C@H](C(=O)O)[C@@H](O)[C@H](O)[C@H]2O[C@@H]2O[C@H](C(=O)O)[C@@H](O)[C@H](O)[C@H]2O)CC[C@]2(C)[C@H]3C(=O)C=C4[C@@H]5C[C@@](C)(C(=O)O)CC[C@]5(C)CC[C@@]4(C)[C@]3(C)CC[C@@H]12 [glycyrrhizin]	–	–	–	–	–	reduction of systemic exposure to aconitine ([1]; glycyrrhizin by intravenous injection): 33%; reduction of systemic exposure to aconitine ([1]; glycyrrhizin by oral gavage): 27%
Nc1ccc(S(=O)(=O)Nc2ccnn2-c2ccccc2)cc1 [Sulfaphenazolum]	–	–	–	–	–	CYP2c13(%) metabolic clearance rate of probe drug (CYP2c13): 16.47 ± 1.34%; CYP2e1 (%) metabolic clearance rate of probe drug (CYP2e1): 16.11 ± 0.18%; CYP2b1(%) metabolic clearance rate of probe drug (CYP2b1): 7.74 ± 0.98%; CYP2d2 (%) metabolic clearance rate of probe drug (CYP2d2; RLM 0.5 mg/mL, 30 min 37°C, inhibitor added, probe metoprolol, blank control […] ± 2.12, n = 3): 13.50 ± 0.30%; CYP2c11(%) metabolic clearance rate of probe drug (CYP2c11): 6.16 ± 0.65 %; CYP3a1 (%) metabolic clearance rate of probe drug (CYP3a1; RLM 0.5 mg/mL, 30 min 37°C, inhibitor added, probe testosterone, blank control 25.04 ± 1.93, n = 3): 25.69 ± 1.69%
COc1ccc2[nH]c([S+]([O-])Cc3ncc(C)c(OC)c3C)nc2c1 (stereo not shown) [omeprazole]	3900 ± 394 ng·h/mL	3840 ± 372 ng·h/mL	43.4 mL/min/kg	995 ± 78 ng/mL	–	t1/2 z [2]: 4.689 ± 0.467 h
CC(NC(C)(C)C)C(=O)c1cccc(Cl)c1 (stereo not shown) [bupropion]	16300 ± 1410 ng·h/mL	15800 ± 1320 ng·h/mL	7.16 mL/min/kg	1300 ± 93 ng/mL	18.7 ± 0.948 h	–
Cn1c(=O)c2[nH]cnc2n(C)c1=O [theophylline]	22500 ± 1440 ng·h/mL	21900 ± 1250 ng·h/mL	7.75 mL/min/kg	1810 ± 94 ng/mL	–	t1/2 z [2]: 5.273 ± 0.526 h
O=C(O)Cc1ccccc1Nc1c(Cl)cccc1Cl [diclofenac]	5470 ± 358 ng·h/mL	5230 ± 465 ng·h/mL	42.3 mL/min/kg	1080 ± 115 ng/mL	4.98 ± 0.557 h	–
C[C@]12CC[C@H]3[C@@H](CCC4=CC(=O)CC[C@@]43C)[C@@H]1CC[C@@H]2O [testosterone]	1410 ± 69 ng·h/mL	1210 ± 81 ng·h/mL	66.8 mL/min/kg	295 ± 54 ng/mL	11.1 ± 1.11 h	–
COCCc1ccc(OCC(O)CNC(C)C)cc1 (stereo not shown) [metoprolol]	10100 ± 1480 ng·h/mL	9600 ± 988 ng·h/mL	26.3 mL/min/kg	891 ± 114 ng/mL	7.95 ± 1.15 h	–
CC(=O)N1CCN(c2ccc(OCC3COC(Cn4ccnc4)(c4ccc(Cl)cc4Cl)O3)cc2)CC1 (stereo not shown) [Ketoconazole, ketoconazole]	–	–	–	–	–	CYP2c13(%) metabolic clearance rate of probe drug (CYP2c13): 17.26 ± 1.08%; CYP2b1(%) metabolic clearance rate of probe drug (CYP2b1): 7.11 ± 0.17%; CYP2d2 (%) metabolic clearance rate of probe drug (CYP2d2): 12.73 ± 1.11%; CYP1a2 (%) metabolic clearance rate of probe drug (CYP1a2): 36.04 ± 1.71%; CYP3a1 (%) metabolic clearance rate of probe drug (CYP3a1): 5.45 ± 2.49 %
